Source: patent US20070117743A1, “New antitumoral compounds” (priority 2003, published 2007)

What was measured:
Type in all cases: cell-based, human
IGROV-1 = assay: SRB colorimetric assay of cell growth and viability, IGROV-1; settings: 48 hours exposure, SRB
DU-145 = assay: SRB colorimetric assay of cell growth and viability, DU-145; settings: 48 hours exposure, SRB
IGROV-ET = assay: SRB colorimetric assay of cell growth and viability, IGROV-ET; settings: 48 hours exposure, SRB; for CC50: read-out: LC50 IGROV-ET
HeLa-APL = assay: SRB colorimetric assay of cell growth and viability, HeLa-APL; settings: 48 hours exposure, SRB; for CC50: read-out: LC50 HELA-APL
LoVo-Dox = assay: SRB colorimetric assay of cell growth and viability, LoVo-Dox; settings: 48 hours exposure, SRB; for CC50: read-out: LC50 LOVO-DOX
In short: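 After 48 hours continuous exposure to samples spanning 10 to 10^−8 μg/mL, biomass was quantified by sulforhodamine B staining of TCA-fixed cells (OD 490 nm). Cells, 5×10^3 per well in RPMI 1640 10% FBS, had attached 18 hours first; GI, TGI and LC derived from triplicate wells.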

LNCaP = assay: SRB colorimetric assay of cell growth and viability, LNCaP; settings: 48 hours exposure, SRB; for GI50: read-out: GI50 LN-caP; for CC50: read-out: LC50 LN-caP
HT-29 = assay: SRB colorimetric assay of cell growth and viability, HT-29; settings: 48 hours exposure, SRB; for GI50: read-out: GI50 HT-29; for CC50: read-out: LC50 HT-29
PANC-1 = assay: SRB colorimetric assay of cell growth and viability, PANC-1; settings: 48 hours exposure, SRB; for CC50: read-out: LC50 PANC-1
LoVo = assay: SRB colorimetric assay of cell growth and viability, LoVo; settings: 48 hours exposure, SRB; for CC50: read-out: LC50 LOVO
SK-BR-3 = assay: SRB colorimetric assay of cell growth and viability, SK-BR-3; settings: 48 hours exposure, SRB
A-549 = assay: SRB colorimetric assay of cell growth and viability, A-549; settings: 48 hours exposure, SRB; for GI50: read-out: GI50 A-549; for CC50: read-out: LC50 A-549
SK-MEL-28 = assay: SRB colorimetric assay of cell growth and viability, SK-MEL-28; settings: 48 hours exposure, SRB; for CC50: read-out: LC50 MEL-28
HeLa = assay: SRB colorimetric assay of cell growth and viability, HeLa; settings: 48 hours exposure, SRB

Compound	GI50 (IGROV-1)	LC50 (concentration causing 50% net cell killing) (IGROV-1)	TGI IGROV (IGROV-1)	GI50 (DU-145)	LC50 (concentration causing 50% net cell kill) (DU-145)	TGI DU-145 (DU-145)	GI50 (IGROV-ET)	TGI IGROV-ET (IGROV-ET)	CC50 (IGROV-ET)	GI50 (HeLa-APL)	TGI HELA-APL (HeLa-APL)	CC50 (HeLa-APL)	GI50 (LoVo-Dox)	TGI LOVO-DOX (LoVo-Dox)	CC50 (LoVo-Dox)	TGI LN-caP (LNCaP)	GI50 (LNCaP)	CC50 (LNCaP)	TGI HT-29 (HT-29)	GI50 (HT-29)	further results
C/C=C1\NC(=O)[C@H](Cc2ccc([N+](=O)[O-])cc2)NC(=O)[C@@H](C(C)C)NC(=O)[C@@H]([C@@H](C)CC)NC(=O)[C@H](NC(=O)[C@H](NC(=O)[C@H](CCCN)NC(=O)[C@H]2CCCN2C(=O)[C@H](NC(=O)[C@@H](NC(=O)[C@@H](NC(=O)[C@H](NC(=O)CC[C@@H](C)CC)C(C)C)[C@@H](C)O)C(C)C)C(C)C)[C@@H](C)CC)[C@@H](C)OC(=O)[C@H](C(C)C)NC1=O [Compound 73, [Phe(4-NO2)^3, (4S)-MeHex^14]-KF]	173 nM	488 nM	2.90E−07 Molar	233 nM	2040 nM	6.57E−07 Molar	229 nM	3.26E−07 Molar	467 nM	521 nM	1.30E−06 Molar	2950 nM	33.5 nM	9.46E−08 Molar	255 nM	8.41E−07 Molar	377 nM	2320 nM	2.32E−07 Molar	127 nM	CC50 (HT-29): 426 nM; GI50 (PANC-1): 952 nM; TGI PANC-1 (PANC-1): 1.85E−06 Molar; CC50 (PANC-1): 3580 nM; GI50 (LoVo): 112 nM; TGI LOVO (LoVo): 2.04E−07 Molar; CC50 (LoVo): 372 nM; GI50 (SK-BR-3): 150 nM; LC50 (SK-BR-3): 574 nM; TGI SK-BR-3 (SK-BR-3): 2.94E−07 Molar; TGI A-549 (A-549): 1.24E−06 Molar; GI50 (A-549): 532 nM; CC50 (A-549): 2760 nM; GI50 (SK-MEL-28): 223 nM; TGI MEL-28 (SK-MEL-28): 4.71E−07 Molar; CC50 (SK-MEL-28): 1480 nM; GI50 (HeLa): 173 nM; TGI HELA (HeLa): 2.80E−07 Molar; CC50 (HeLa; read-out: LC50 HELA): 450 nM
C/C=C1\NC(=O)[C@H](Cc2ccc(F)cc2)NC(=O)[C@@H](C(C)C)NC(=O)[C@@H]([C@@H](C)CC)NC(=O)[C@H](NC(=O)[C@H](NC(=O)[C@H](CCCN)NC(=O)[C@H]2CCCN2C(=O)[C@H](NC(=O)[C@@H](NC(=O)[C@@H](NC(=O)[C@H](NC(=O)CC[C@@H](C)CC)C(C)C)[C@@H](C)O)C(C)C)C(C)C)[C@@H](C)CC)[C@@H](C)OC(=O)[C@H](C(C)C)NC1=O [Compound 74, [Phe(4-F)^3, (4S)-MeHex^14]-KF]	206 nM	943 nM	3.88E−07 Molar	796 nM	3250 nM	1.61E−06 Molar	212 nM	3.18E−07 Molar	477 nM	675 nM	1.46E−06 Molar	3150 nM	153 nM	3.09E−07 Molar	624 nM	1.02E−06 Molar	402 nM	2590 nM	2.61E−07 Molar	137 nM	CC50 (HT-29): 499 nM; GI50 (PANC-1): 1080 nM; TGI PANC-1 (PANC-1): 1.98E−06 Molar; CC50 (PANC-1): 3600 nM; GI50 (LoVo): 139 nM; TGI LOVO (LoVo): 2.35E−07 Molar; CC50 (LoVo): 395 nM; GI50 (SK-BR-3): 213 nM; LC50 (SK-BR-3): 495 nM; TGI SK-BR-3 (SK-BR-3): 3.24E−07 Molar; TGI A-549 (A-549): 1.76E−06 Molar; GI50 (A-549): 956 nM; CC50 (A-549): 3230 nM; GI50 (SK-MEL-28): 829 nM; TGI MEL-28 (SK-MEL-28): 1.64E−06 Molar; CC50 (SK-MEL-28): 3230 nM; GI50 (HeLa): 214 nM; TGI HELA (HeLa): 3.78E−07 Molar
